Drawing on patent US9000022B2 (Exelixis Patent Company LLC, priority 2005, dated 2015), this text covers IC50 or EC50 (potency, activation or inhibition) for 23 molecules.

The test system of this experiment is LXRα and/or LXRβ. In words: Co-transfection assay (LXRE luciferase reporter, CV-1 cells). It counts as cell-based, human. The settings on record: tested as described in Example 33; IC50 or EC50 for LXRα and/or LXRβ, isoform not specified; read-out: activity (IC50 or EC50 for LXR). From the text: To measure the ability of compounds to activate or inhibit the transcriptional activity of LXR in a cell based assay, the co-transfection assay was used. It has been shown that LXR functions as a heterodimer with RXR. For the co-transfection assay, expression plasmids for LXR and RXR are introduced via transient transfection into mammalian cells along with a luciferase reporter plasmid that contains one copy of a DNA sequence that is bound by LXR-RXR heterodimers (LXRE; Willy, P. et. al. 1995). Treatment of transfected cells with an LXR agonist increases the transcriptional activity of LXR, which is measured by an increase in luciferase activity.
CV-1 African Green Monkey Kidney Cells Co-transfection expression plasmids, comprising full-length LXRα (pCMX-h LXRα, LXRβ (pCMX-hLXRβ), or RXRα (pCMX-RXR), reporter plasmid (LXREx1-Tk-Luciferase), and control (pCMX-Galactosidase expression vector) (Willey et al. Genes & Development 9 1033-1045 (1995)). Transfection reagent such as FuGENE6 (Roche). 1× Cell lysis buffer (1% Triton X 100 (J T Baker X200-07), 10% Glycerol (J T Baker M778-07), 5 mM Ditriotreitol (Quantum Bioprobe DTT03; add fresh before lysing), 1 mM EGTA (Ethylene Glycol-bis(B-Amino ethyl ether)-N,N,N′,N′-Tetracetic Acid) (Sigma E-4378), 25 mM Tricine (ICN 807420) pH 7.8) 1× Luciferase assay buffer (pH at 7.8) (0.73 mM ATP, 22.3 mM Tricine, 0.11 mM EDTA, 33.3 mM DTT) 1× Luciferrin/CoA (11 mM Luciferin, 3.05 mM Coenzyme A, 10 mM HEPES)
CV-1 cells were prepared 24 hours prior to the experiment by plating them into T-175 flasks or 500 cm^2 dishes in order to achieve 70-80% confluency on the day of the transfection. The number of cells to be transfected was determined by the number of plates to be screened. Each 384 well plate requires 1.92×10^6 cells or 5000 cells per well. DNA Transfection Reagent was prepared by mixing the required plasmid DNAs with a cationic lipid transfection reagent FuGENE6 (Roche) by following the instructions provided with the reagents. Optimal DNA amounts were determined empirically per cell line and size of vessel to be transfected. 10-12 mL of media was added to the DNA Transfection Reagent and this mixture was added to the cells after aspirating media from the T175 cm^2 flask. Cells were then incubated at least 5 hours at 37° C. to prepare screening cells.
Luciferase assay reagent was prepared by combining before use (per 10 mL): 10 mL 1× Luciferase assay buffer; 0.54 mL of 1× Luciferrin/CoA; 0.54 mL of 0.2 M Magnesium sulfate
Assay plates were prepared by dispensing 5 μL, of compound per well of a 384 well plate to achieve final compound concentration of 10 μM and no more than 1% DMSO. Media was removed from the screening cells, the cells trypsinized, harvested cells by centrifugation, counted, and plated at a density of approximately 5000 cells per well in the 384 well assay plate prepared above in a volume of about 45 μL. Assay plates containing both compounds and screening cells (50 μL in total volume) were incubated for 20 hours at 37° C.
After incubation with compounds, media was removed from the cells and lysis buffer (30 μL/well) added. After 30 minutes at ambient temperature, luciferase assay buffer (30 μL/well) was added and the assay plates read on a luminometer (PE Biosystems Northstar reader with on-board injectors, or equivalent). Plates were read immediately after addition of luciferase assay buffer.
The LXR/LNRE co-transfection assay can be used to establish the EC50/IC50 values for potency and percent activity or inhibition for efficacy. Efficacy defines the activity of a compound relative to a high control ((N-(3-((4-fluorophenyl)-(naphthalene-2-sulfonyl)amino)propyl)-2,2-dimethylpropionamide)) or a low control (DMSO/vehicle). The dose response curves are generated from an 8 point curve with concentrations differing by ½ LOG units. Each point represents the average of 4 wells of data from a 384 well plate. […]
On the technique in general: A reporter such as luciferase makes a cellular process visible.

Structures are written as SMILES. Bounds are passed on as bounds.

In the case of `CCc1ccccc1-c1nc(/C(C)=N/O)cn1-c1ccc(-c2cccc(S(C)(=O)=O)c2)cc1` [Example 71, (E)-1-(2-(2-ethylphenyl)-1-(3′-(methylsulfonyl)biphenyl-4-yl)-1H-imidazol-4-yl)ethanone oxime], the IC50 or EC50 (potency, activation or inhibition) was less than 1000 nM.
In the case of `CCC(O)(CC)c1cn(-c2ccc(-c3cccc(S(C)(=O)=O)c3)cc2)c(-c2cccc(Cl)c2Cl)n1` [Example 72, 3-(2-(2,3-dichlorophenyl)-1-(3′-(methylsulfonyl)biphenyl-4-yl)-1H-imidazol-4-yl)pentan-3-ol] it was less than 1000 nM; in that of `CCC(O)(CC)c1cn(-c2ccc(-c3cccc(S(=O)(=O)CC)c3)cc2)c(-c2cccc(Cl)c2Cl)n1` [Example 73, 3-(2-(2,3-dichlorophenyl)-1-(3′-(ethylsulfonyl)biphenyl-4-yl)-1H-imidazol-4-yl)pentan-3-ol], less than 1000 nM; in that of `CCC(O)(CC)c1cn(-c2ccc(-c3cccc(S(C)(=O)=O)c3)cc2)c(-c2c(Cl)cccc2Cl)n1` [Example 74, 3-(2-(2,6-dichlorophenyl)-1-(3′-(methylsulfonyl)biphenyl-4-yl)-1H-imidazol-4-yl)pentan-3-ol], less than 1000 nM.
With `Cc1cc(-c2cccc(S(C)(=O)=O)c2)ccc1-n1cc(C(=S)NCC(F)(F)F)nc1-c1ccccc1C(C)C` [Example 75, 2-(2-isopropylphenyl)-1-(3-methyl-3′-(methylsulfonyl)biphenyl-4-yl)-N-(2,2,2-trifluoroethyl)-1H-imidazole-4-carbothioamide], the IC50 or EC50 (potency, activation or inhibition) is less than 1000 nM.
In the case of `C/C(=N\O)c1cn(-c2ccc(-c3cccc(S(C)(=O)=O)c3)cc2C)c(-c2ccccc2C(C)C)n1` [Example 76, (E)-1-(2-(2-isopropylphenyl)-1-(3-methyl-3′-(methylsulfonyl)biphenyl-4-yl)-1H-imidazol-4-yl)ethanone oxime], the IC50 or EC50 (potency, activation or inhibition) is less than 1000 nM.
For the molecule `C=C(C)c1cn(-c2ccc(-c3cccc(S(=O)(=O)CC)c3)cc2)c(-c2cccc(Cl)c2Cl)n1` [Example 77, 2-(2,3-dichlorophenyl)-1-(3′-(ethylsulfonyl)biphenyl-4-yl)-4-(prop-1-en-2-yl)-1H-imidazole], the IC50 or EC50 (potency, activation or inhibition) is less than 1000 nM.
On to `C=C(C)c1cn(-c2ccc(-c3cccc(S(C)(=O)=O)c3)cc2)c(-c2c(Cl)cccc2Cl)n1` [Example 78, 2-(2,6-dichlorophenyl)-1-(3′-(methylsulfonyl)biphenyl-4-yl)-4-(prop-1-en-2-yl)-1H-imidazole], for which the IC50 or EC50 (potency, activation or inhibition) was less than 1000 nM.
For `CC(C)(O)c1cn(-c2ccc(-c3ccc(C(=O)NCc4ccccc4)c(S(C)(=O)=O)c3)cc2Cl)c(-c2c(F)cccc2Cl)n1` [Example 80, N-benzyl-3′-chloro-4′-(2-(2-chloro-6-fluorophenyl)-4-(2-hydroxypropan-2-yl)-1H-imidazol-1-yl)-3-(methyl-sulfonyl)biphenyl-4-carboxamide], the IC50 or EC50 (potency, activation or inhibition) was 1000 to 10000 nM.
For `CCNC(=O)c1cn(-c2ccc(-c3cccc(S(C)(=O)=O)c3)cc2)c(-c2c(Cl)cccc2Cl)n1` [Example 82, 2-(2,6-dichlorophenyl)-N-ethyl-1-(3′-(methylsulfonyl)biphenyl-4-yl)-1H-imidazole-4-carboxamide], the IC50 or EC50 (potency, activation or inhibition) is less than 1000 nM.
Regarding `CN1CCN(C(=O)c2cn(-c3ccc(-c4cccc(S(C)(=O)=O)c4)cc3)c(-c3c(Cl)cccc3Cl)n2)CC1` [Example 83, (2-(2,6-dichlorophenyl)-1-(3′-(methylsulfonyl)biphenyl-4-yl)-1H-imidazol-4-yl)(4-methylpiperazin-1-yl)methanone], the IC50 or EC50 (potency, activation or inhibition) lay within 1000 to 10000 nM.
Consider `CS(=O)(=O)c1cccc(-c2ccc(-n3cc(C(=O)NCCO)nc3-c3c(Cl)cccc3Cl)cc2)c1` [Example 84, 2-(2,6-dichlorophenyl)-N-(2-hydroxyethyl)-1-(3′-(methyl-sulfonyl)biphenyl-4-yl)-1H-imidazole-4-carboxamide], for which the IC50 or EC50 (potency, activation or inhibition) is less than 1000 nM.
Under `Cc1cc(-c2cccc(S(C)(=O)=O)c2)ccc1-n1cc(C(=O)NCC(F)(F)F)nc1-c1c(Cl)cccc1Cl` [Example 85, 2-(2,6-dichlorophenyl)-1-(3-methyl-3′-(methylsulfonyl)biphenyl-4-yl)-N-(2,2,2-trifluoroethyl)-1H-imidazole-4-carboxamide] stands less than 1000 nM; under `CCN(CC)C(=O)c1cn(-c2ccc(-c3cccc(S(C)(=O)=O)c3)cc2C)c(-c2c(Cl)cccc2Cl)n1` [Example 86, 2-(2,6-dichlorophenyl)-N,N-diethyl-1-(3-methyl-3′-(methylsulfonyl)biphenyl-4-yl)-1H-imidazole-4-carboxamide], less than 1000 nM.
Consider `CS(=O)(=O)c1cccc(-c2ccc(-n3cc(C(=O)NCC(F)(F)F)nc3-c3c(Cl)cccc3Cl)cc2)c1` [Example 87, 2-(2,6-dichlorophenyl)-1-(3′-(methyl-sulfonyl)biphenyl-4-yl)-4-(2,2,2-trifluoroethyl)-1H-imidazole-4-carboxamide], for which the IC50 or EC50 (potency, activation or inhibition) was less than 1000 nM.
In the case of `CS(=O)(=O)c1cccc(-c2ccc(-n3cc(C(=O)NCCF)nc3-c3c(Cl)cccc3Cl)cc2)c1` [Example 88, 2-(2,6-dichlorophenyl)-N-(2-fluoroethyl)-1-(3′-(methyl-sulfonyl)biphenyl-4-yl)-1H-imidazole-4-carboxamide] it was less than 1000 nM; in that of `Cc1cc(-c2cccc(S(C)(=O)=O)c2)ccc1-n1cc(C(=O)NCC(F)(F)F)nc1-c1ccccc1C(C)C` [Example 89], less than 1000 nM.
Under `CN(C)c1cccc(F)c1-c1nc(C(C)(C)O)cn1-c1ccc(-c2cccc(S(C)(=O)=O)c2)cc1` [Example 90, 2-(2-(2-(dimethylamino)-6-fluoro-phenyl)-1-(3′-(methylsulfonyl)biphenyl-4-yl)-1H-imidazol-4-yl)propan-2-ol] stands less than 1000 nM.
On to `CCS(=O)(=O)c1cccc(-c2ccc(-n3cc(C(C)(C)O)nc3-c3c(Cl)cccc3Cl)cc2)c1` [Example 91, 2-(2-(2,6-dichlorophenyl)-1-(3′-(ethylsulfonyl)biphenyl-4-yl)-1H-imidazol-4-yl)propan-2-ol], for which the IC50 or EC50 (potency, activation or inhibition) lay within 1000 to 10000 nM.
In the case of `CCS(=O)(=O)c1cccc(-c2ccc(-n3cc(C(C)(C)O)nc3-c3c(F)cccc3Cl)cc2)c1` [Example 92, 2-(2-(2-chloro-6-fluorophenyl)-1-(3′-(ethylsulfonyl)biphenyl-4-yl)-1H-imidazol-4-yl)propan-2-ol] it was 1000 to 10000 nM; in that of `CCc1ccccc1-c1nc(C(C)(C)O)cn1-c1ccc(-c2cccc(S(C)(=O)=O)c2)cc1` [Example 93], less than 1000 nM; in that of `CC(C)c1ccccc1-c1nc(C(C)(C)O)cn1-c1ccc(-c2cccc(S(C)(=O)=O)c2)cc1` [Example 94, 2-(2-(2-isopropylphenyl)-1-(3′-(methylsulfonyl)biphenyl-4-yl)-1H-imidazol-4-yl)propan-2-ol], less than 1000 nM.
For the molecule `CCS(=O)(=O)c1cccc(-c2ccc(-n3cc(C(C)(C)O)nc3-c3cccc(F)c3Cl)cc2)c1` [Example 95, 2-(2-(2-chloro-3-fluorophenyl)-1-(3′-(ethylsulfonyl)biphenyl-4-yl)-1H-imidazol-4-yl)propan-2-ol], the IC50 or EC50 (potency, activation or inhibition) was less than 1000 nM.
